How the values were obtained:
[1] = Contact angle with water (hydrophobicity); format: physicochemical; conditions: 16 weeks at room temperature (20° C.) and at 40° C., against start value
Experimental: An advantageous property of the PGFEs for an additive in accordance with claim 1 which should be considered is the hydrophobicity, which can be determined by determining the contact angle. The determination of the hydrophobicity is carried out by determining the contact angle between the PGFE in the solid physical state and a droplet of purified water. According to Young's equation, cos θ=(γSV−γSL)/γLV, wherein γSL is the interfacial tension between the PGFE and water, γLV is the interfacial tension of the water droplet and γSV is the surface tension between the PGFE and the surrounding air. θ is the contact angle. Thus, the larger the contact angle θ, the higher is the surface tension between the PGFE and the water and the higher is the hydrophobicity of the PGFE under investigation. The contact angles for the proposed polyglycerol fatty acid esters also correlate with the HLB value which is often used in pharmaceutical technology, which is on a scale of 0 to 20 and provides information regarding the ratio of lipophilic to hydrophilic molecular fractions, wherein the hydrophilic fraction increases with increasing HLB value. […]

[2] = Lopes et al., J. Pharm. Sci. 104: 4257-4265, 2015; cited from earlier work

variation (deviation) of contact angle with water after 16 weeks [1]: 40 °
Compound: CCCCCCCCCCCCCCCCCC(=O)OCC(COC(=O)CCCCCCCCCCCCCCCCC)OC(=O)CCCCCCCCCCCCCCCCC [glycerol tristearate]
increase in the crystal thickness after complete transformation of a- into b-modification [2]: approximately 67%
